Measurements published in ChEMBL document CHEMBL3885861, “Open TG-GATES”.

Organism: Rattus norvegicus
Experiment: Open TG-GATES - Regimen: Daily Repeat
Assay type: toxicity, organism-based, Sprague-Dawley
Parameters: regimen Daily Repeat, gender Male, age 6 weeks
Details: in vivo, po, route gavage; for APTT / Bas / Eos / Fbg / Hb / Ht / Lym / MCH / MCHC / MCV / Mono / Neu / PT / Plat / RBC / Ret / WBC: tissue Blood; for KIDNEY_L / KIDNEY_R / KIDNEY_TOTAL: tissue Kidney; for LIVER: tissue Liver; for A/G / ALP / ALT / AST / BUN / CRE / Ca / Cl / DBIL / GLC / IP / K / LDH / Na / PL / RALB / TBIL / TC / TG / TP / gamma-GTP: tissue Plasma
[1] = 0 mg/kg, 72 h, dose level Control, time 3 day
[2] = 0 mg/kg, […], dose level Control, time 7 day
[3] = 0 mg/kg, […], dose level Control, time 14 day
[4] = 0 mg/kg, […], dose level Control, time 28 day
[5] = 5 mg/kg, 72 h, dose level Low, time 3 day
[6] = 5 mg/kg, […], dose level Low, time 7 day
[7] = 5 mg/kg, […], dose level Low, time 14 day
[8] = 5 mg/kg, […], dose level Low, time 28 day

## CC(=N)S [THIOACETAMIDE]
[1]
  TERMINAL_BW: 229.8 g
  APTT: 17 s
  Bas: 0%
  Eos: 1%
  Fbg: 232.2 mg/dL
  Hb: 13.8 g/dL
  Ht: 42.6%
  Lym: 74.8%
  MCH: 21.2 pg
  MCHC: 32.5%
  MCV: 65.3 fL
  Mono: 8%
  Neu: 16.4%
  PT: 11.5 s
  Plat: 111.4 x10_4/uL
  RBC: 652.8 x10_4/ul
  Ret: 7%
  WBC: 125.1 x10_2/uL
  KIDNEY_L: 1 g
  KIDNEY_R: 1 g
  KIDNEY_TOTAL: 2 g
  LIVER: 10.7 g
  A/G: 2.1
  ALP: 1014.4 IU/L
  ALT: 31 IU/L
  AST: 62.2 IU/L
  BUN: 17 mg/dL
  CRE: 0.6 mg/dL
  Ca: 10.4 mg/dL
  Cl: 104.2 meq/L
  DBIL: 0.018 mg/dL
  GLC: 196.6 mg/dL
  IP: 7.6 mg/dL
  K: 4.9 meq/L
  LDH: 88 IU/L
  Na: 137.6 meq/L
  PL: 157.4 mg/dL
  RALB: 4 g/dL
  TBIL: 0.4 mg/dL
  TC: 80.4 mg/dL
  TG: 106.6 mg/dL
  TP: 5.8 g/dL
  gamma-GTP: 1 IU/L
[2]
  TERMINAL_BW: 254.8 g
  APTT: 17.3 s
  Bas: 0%
  Eos: 1%
  Fbg: 226.2 mg/dL
  Hb: 13.8 g/dL
  Ht: 41.8%
  Lym: 83.6%
  MCH: 20.8 pg
  MCHC: 33%
  MCV: 63.1 fL
  Mono: 4.4%
  Neu: 10.8%
  PT: 11.8 s
  Plat: 111.5 x10_4/uL
  RBC: 661.6 x10_4/ul
  Ret: 5.3%
  WBC: 145.6 x10_2/uL
  KIDNEY_L: 1.1 g
  KIDNEY_R: 1.1 g
  KIDNEY_TOTAL: 2.1 g
  LIVER: 11.8 g
  A/G: 1.8
  ALP: 868.8 IU/L
  ALT: 27.4 IU/L
  AST: 56.8 IU/L
  BUN: 19.4 mg/dL
  CRE: 0.6 mg/dL
  Ca: 10.3 mg/dL
  Cl: 104.4 meq/L
  DBIL: 0.016 mg/dL
  GLC: 190.2 mg/dL
  IP: 7.1 mg/dL
  K: 5.2 meq/L
  LDH: 79 IU/L
  Na: 136.2 meq/L
  PL: 154.6 mg/dL
  RALB: 3.9 g/dL
  TBIL: 0.3 mg/dL
  TC: 75 mg/dL
  TG: 145.8 mg/dL
  TP: 6.1 g/dL
  gamma-GTP: 1 IU/L
[3]
  TERMINAL_BW: 312.2 g
  APTT: 17.4 s
  Bas: 0%
  Eos: 0.8%
  Fbg: 223.8 mg/dL
  Hb: 14.6 g/dL
  Ht: 44.1%
  Lym: 81%
  MCH: 20.2 pg
  MCHC: 33.1%
  MCV: 61.1 fL
  Mono: 5.8%
  Neu: 12.6%
  PT: 11.8 s
  Plat: 101.4 x10_4/uL
  RBC: 722.8 x10_4/ul
  Ret: 4.5%
  WBC: 145.6 x10_2/uL
  KIDNEY_L: 1.2 g
  KIDNEY_R: 1.2 g
  KIDNEY_TOTAL: 2.3 g
  LIVER: 13.8 g
  A/G: 2
  ALP: 716 IU/L
  ALT: 32.2 IU/L
  AST: 64.8 IU/L
  BUN: 18.6 mg/dL
  CRE: 0.6 mg/dL
  Ca: 10.1 mg/dL
  Cl: 103 meq/L
  DBIL: 0.002 mg/dL
  GLC: 181.6 mg/dL
  IP: 7.1 mg/dL
  K: 4.7 meq/L
  LDH: 76 IU/L
  Na: 134.8 meq/L
  PL: 169 mg/dL
  RALB: 4.1 g/dL
  TBIL: 0.3 mg/dL
  TC: 81.6 mg/dL
  TG: 158.6 mg/dL
  TP: 6.1 g/dL
  gamma-GTP: 1.4 IU/L
[4]
  TERMINAL_BW: 377.5 g
  APTT: 17.5 s
  Bas: 0%
  Eos: 1%
  Fbg: 248.6 mg/dL
  Hb: 15.9 g/dL
  Ht: 46.8%
  Lym: 86.2%
  MCH: 19.7 pg
  MCHC: 33.9%
  MCV: 58 fL
  Mono: 4%
  Neu: 9.2%
  PT: 10.8 s
  Plat: 104.1 x10_4/uL
  RBC: 807.6 x10_4/ul
  Ret: 2.8%
  WBC: 194 x10_2/uL
  KIDNEY_L: 1.4 g
  KIDNEY_R: 1.4 g
  KIDNEY_TOTAL: 2.7 g
  LIVER: 15.2 g
  A/G: 1.9
  ALP: 629 IU/L
  ALT: 29.4 IU/L
  AST: 63 IU/L
  BUN: 18.8 mg/dL
  CRE: 0.6 mg/dL
  Ca: 10.1 mg/dL
  Cl: 103 meq/L
  DBIL: 0 mg/dL
  GLC: 179.4 mg/dL
  IP: 6.8 mg/dL
  K: 4.5 meq/L
  LDH: 96.4 IU/L
  Na: 135.4 meq/L
  PL: 172.8 mg/dL
  RALB: 4.1 g/dL
  TBIL: 0.2 mg/dL
  TC: 83 mg/dL
  TG: 174.6 mg/dL
  TP: 6.3 g/dL
  gamma-GTP: 1.2 IU/L
[5]
  TERMINAL_BW: 228.6 g
  APTT: 16.9 s
  Bas: 0%
  Eos: 1%
  Fbg: 234 mg/dL
  Hb: 13.6 g/dL
  Ht: 41.4%
  Lym: 78.8%
  MCH: 21 pg
  MCHC: 32.9%
  MCV: 63.8 fL
  Mono: 8.2%
  Neu: 12.2%
  PT: 11.6 s
  Plat: 111 x10_4/uL
  RBC: 649.4 x10_4/ul
  Ret: 6.6%
  WBC: 139.8 x10_2/uL
  KIDNEY_L: 1 g
  KIDNEY_R: 1.1 g
  KIDNEY_TOTAL: 2.1 g
  LIVER: 11.7 g
  A/G: 2.1
  ALP: 900 IU/L
  ALT: 28 IU/L
  AST: 58.8 IU/L
  BUN: 16.2 mg/dL
  CRE: 0.5 mg/dL
  Ca: 10.7 mg/dL
  Cl: 104.8 meq/L
  DBIL: 0.004 mg/dL
  GLC: 192.6 mg/dL
  IP: 7.8 mg/dL
  K: 4.7 meq/L
  LDH: 95.2 IU/L
  Na: 137 meq/L
  PL: 159.8 mg/dL
  RALB: 4 g/dL
  TBIL: 0.3 mg/dL
  TC: 83.2 mg/dL
  TG: 123.2 mg/dL
  TP: 5.9 g/dL
  gamma-GTP: 2 IU/L
[6]
  TERMINAL_BW: 252.6 g
  APTT: 16.4 s
  Bas: 0%
  Eos: 1%
  Fbg: 229.2 mg/dL
  Hb: 13.8 g/dL
  Ht: 41.5%
  Lym: 82%
  MCH: 20.9 pg
  MCHC: 33.3%
  MCV: 62.9 fL
  Mono: 6.6%
  Neu: 10.2%
  PT: 12.1 s
  Plat: 111.2 x10_4/uL
  RBC: 660.4 x10_4/ul
  Ret: 5.3%
  WBC: 155.6 x10_2/uL
  KIDNEY_L: 1 g
  KIDNEY_R: 1.1 g
  KIDNEY_TOTAL: 2.1 g
  LIVER: 12.3 g
  A/G: 1.9
  ALP: 742.6 IU/L
  ALT: 31.8 IU/L
  AST: 56 IU/L
  BUN: 18 mg/dL
  CRE: 0.5 mg/dL
  Ca: 10.5 mg/dL
  Cl: 105 meq/L
  DBIL: 0.008 mg/dL
  GLC: 186.6 mg/dL
  IP: 7.6 mg/dL
  K: 5.1 meq/L
  LDH: 84.8 IU/L
  Na: 135.2 meq/L
  PL: 160 mg/dL
  RALB: 3.9 g/dL
  TBIL: 0.3 mg/dL
  TC: 76.4 mg/dL
  TG: 167.4 mg/dL
  TP: 6 g/dL
  gamma-GTP: 1.4 IU/L
[7]
  TERMINAL_BW: 308.5 g
  APTT: 17.1 s
  Bas: 0%
  Eos: 0.8%
  Fbg: 231.8 mg/dL
  Hb: 14.6 g/dL
  Ht: 44.1%
  Lym: 83.6%
  MCH: 19.8 pg
  MCHC: 33.1%
  MCV: 59.9 fL
  Mono: 6%
  Neu: 10%
  PT: 12.3 s
  Plat: 102 x10_4/uL
  RBC: 736.2 x10_4/ul
  Ret: 3.9%
  WBC: 165.2 x10_2/uL
  KIDNEY_L: 1.2 g
  KIDNEY_R: 1.2 g
  KIDNEY_TOTAL: 2.4 g
  LIVER: 13.6 g
  A/G: 2
  ALP: 870.6 IU/L
  ALT: 29.8 IU/L
  AST: 62 IU/L
  BUN: 18.2 mg/dL
  CRE: 0.6 mg/dL
  Ca: 10.2 mg/dL
  Cl: 104.6 meq/L
  DBIL: 0.006 mg/dL
  GLC: 185.4 mg/dL
  IP: 6.8 mg/dL
  K: 5 meq/L
  LDH: 78.6 IU/L
  Na: 134.2 meq/L
  PL: 135.8 mg/dL
  RALB: 4.1 g/dL
  TBIL: 0.4 mg/dL
  TC: 61.6 mg/dL
  TG: 156.8 mg/dL
  TP: 6.2 g/dL
  gamma-GTP: 2 IU/L
[8]
  TERMINAL_BW: 375.1 g
  APTT: 17 s
  Bas: 0%
  Eos: 0.8%
  Fbg: 242.4 mg/dL
  Hb: 15 g/dL
  Ht: 44.9%
  Lym: 85.2%
  MCH: 19.6 pg
  MCHC: 33.5%
  MCV: 58.5 fL
  Mono: 3.6%
  Neu: 10.4%
  PT: 11.1 s
  Plat: 111.7 x10_4/uL
  RBC: 767.8 x10_4/ul
  Ret: 3%
  WBC: 184.6 x10_2/uL
  KIDNEY_L: 1.3 g
  KIDNEY_R: 1.4 g
  KIDNEY_TOTAL: 2.7 g
  LIVER: 16.5 g
  A/G: 1.6
  ALP: 613.4 IU/L
  ALT: 25.8 IU/L
  AST: 54.6 IU/L
  BUN: 21.6 mg/dL
  CRE: 0.6 mg/dL
  Ca: 10.2 mg/dL
  Cl: 103 meq/L
  DBIL: 0 mg/dL
  GLC: 164 mg/dL
  IP: 6.9 mg/dL
  K: 4.6 meq/L
  LDH: 90.2 IU/L
  Na: 135.2 meq/L
  PL: 135.6 mg/dL
  RALB: 3.9 g/dL
  TBIL: 0.3 mg/dL
  TC: 60.8 mg/dL
  TG: 131.8 mg/dL
  TP: 6.4 g/dL
  gamma-GTP: 1.6 IU/L
